In the supplement of paper PMC11061612:

What was measured:
Assay in all cases: combination Emax (second highest fraction inhibited in the dose matrix, 72 h); higher = more inhibition; extreme values may be limits of the assay
[1] = test system: 23132-87 (Gastric Carcinoma)
In short: (§1)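 Bliss excess equals the observed combination effect minus the expected value EA + EB − EA·EB, where EA and EB are the effects of each agent alone. Combination Emax is the second-highest inhibition within the matrix. Inhibition was scaled from CellTiter-Glo 2.0 luminescence, with 0 set by vehicle wells and 1 by blank wells, after 72 hours of two-drug dosing of cells plated in 1536-well plates.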

[2] = test system: CAL-120 (Breast Carcinoma)
In short: as §1

[3] = test system: FADU (Head and Neck Carcinoma)
In short: as §1

[4] = test system: GP5d (Colorectal Carcinoma)
In short: as §1

[5] = test system: HEC-1 (Endometrial Carcinoma)
In short: as §1

[6] = test system: HSC-39 (Gastric Carcinoma)
In short: as §1

IST-MES1 (Mesothelioma) = test system: IST-MES1 (Mesothelioma)
In short: as §1

[7] = test system: KE-37 (T-Lymphoblastic Leukemia)
In short: as §1

[8] = test system: LK-2 (Squamous Cell Lung Carcinoma)
In short: as §1

[9] = test system: MFE-280 (Endometrial Carcinoma)
In short: as §1

[10] = test system: MKN45 (Gastric Carcinoma)
In short: as §1

[11] = test system: NCI-H2342 (Lung Adenocarcinoma)
In short: as §1

[12] = test system: PC-3_[JPC-3] (Lung Adenocarcinoma)
In short: as §1

[13] = test system: PSN1 (Pancreatic Carcinoma)
In short: as §1

[14] = test system: RCM-1 (Colorectal Carcinoma)
In short: as §1

[15] = test system: REH (B-Lymphoblastic Leukemia)
In short: as §1

[16] = test system: RERF-GC-1B (Gastric Carcinoma)
In short: as §1

[17] = test system: RERF-LC-Sq1 (Squamous Cell Lung Carcinoma)
In short: as §1

SF268 (Low Grade Glioma) = test system: SF268 (Low Grade Glioma)
In short: as §1

[18] = test system: VAL (B-Cell Non-Hodgkin's Lymphoma)
In short: as §1

SMILES | combination Emax [1] | combination Emax [2] | combination Emax [3] | combination Emax [4] | combination Emax [5] | combination Emax [6] | combination Emax (IST-MES1 (Mesothelioma)) | combination Emax [7] | combination Emax [8] | combination Emax [9] | combination Emax [10] | combination Emax [11] | combination Emax [12] | combination Emax [13] | combination Emax [14] | combination Emax [15] | combination Emax [16] | combination Emax [17] | combination Emax (SF268 (Low Grade Glioma)) | combination Emax [18]
COc1cccc(OCCCN)c1-c1cc(Nc2cnc(C#N)cn2)n[nH]1 [Prexasertib] + CN(C)CCCOc1ccc(-c2ccc3ncc4c(c3c2)n(C2CCOCC2)c(=O)n4C)cn1 [AZD0156] (first compound max 1 µM, 7x7, partner max 1 µM) | 0.926 | 0.456 | 0.808 | 0.983 | 0.655 | 1 | 0.218 | 1 | 0.726 | 0.441 | 0.836 | 0.345 | 0.384 | 0.444 | 0.818 | 0.994 | 0.616 | 0.864 | 0.493 | 0.924
Cc1cc2ncnn2cc1Nc1ncc2c(n1)n(C1CCOCC1)c(=O)n2C [AZD7648] + C=CCn1c(=O)c2cnc(Nc3ccc(N4CCN(C)CC4)cc3)nc2n1-c1cccc(C(C)(C)O)n1 [AZD1775] (first compound max 10 µM, partner max 1 µM) | 0.659 | 0.498 | 0.546 | 0.704 | 0.137 | 0.936 | 0.402 | 1 | 0.894 | 0.355 | 0.804 | 0.255 | 0.483 | 0.557 | 0.596 | 0.848 | 0.788 | 0.672 | 0.344 | 0.864
NC1(C(=O)N[C@@H](CCO)c2ccc(Cl)cc2)CCN(c2ncnc3[nH]ccc23)CC1 [Capivasertib] + Cn1cnc2c(F)c(Nc3ccc(Br)cc3Cl)c(C(=O)NOCCO)cc21 [Selumetinib] (first compound max 10 µM, 7x7, partner max 10 µM) | 0.396 | 0.444 | 0.531 | 0.807 | 0.239 | 0.852 | 0.366 | 0.707 | 0.467 | 0.68 | 0.705 | 0.381 | 0.382 | 0.772 | 0.668 | 0.492 | 0.6 | 0.917 | 0.315 | 0.607
CC(=O)c1c(C)c2cnc(Nc3ccc(N4CCNCC4)cn3)nc2n(C2CCCC2)c1=O [Palbociclib] + Cc1c2c(nn1C)CSCc1cc(n(C)n1)CSc1cc(c3ccccc3c1)OCCCc1c(C(=O)O)n(C)c3c-2c(Cl)ccc13 [AZD5991] (first compound max 10 µM, 7x7, partner max 1 µM) | 0.305 | 0.134 | 0.888 | 0.881 | 0.153 | 0.995 | 0.344 | 0.687 | 0.33 | 0.227 | 0.498 | 0.348 | 0.241 | 0.564 | 0.327 | 0.835 | 0.784 | 0.594 | 0.362 | 0.717
COc1nnc2ccc(N3CCC(c4ccc(OCCN5CCN(C)C(=O)[C@H]5C)cc4)CC3)nn12 [AZD5153] + Cc1c2c(nn1C)CSCc1cc(n(C)n1)CSc1cc(c3ccccc3c1)OCCCc1c(C(=O)O)n(C)c3c-2c(Cl)ccc13 [AZD5991] (first compound max 1 µM, 7x7, partner max 1 µM) | 0.87 | 0.403 | 0.975 | 0.961 | 0.942 | 1 | 0.96 | 0.997 | 0.413 | 0.45 | 0.497 | 0.563 | 0.39 | 0.506 | 0.619 | 0.965 | 0.985 | 0.602 | 0.569 | 0.854
CCN(CCO)CCCOc1ccc2c(Nc3cc(CC(=O)Nc4cccc(F)c4)[nH]n3)ncnc2c1 [AZD2811] + O=C(c1cc(Cc2n[nH]c(=O)c3ccccc23)ccc1F)N1CCN(C(=O)C2CC2)CC1 [Olaparib] (first compound max 1 µM, 7x7, partner max 10 µM) | 0.246 | 0.293 | 0.299 | 0.516 | 0.0832 | 0.985 | 0.29 | 0.998 | 0.765 | 0.339 | 0.28 | 0.166 | 0.205 | 0.251 | 0.247 | 0.487 | 0.316 | 0.219 | 0.178 | 0.831
Cc1c2c(nn1C)CSCc1cc(n(C)n1)CSc1cc(c3ccccc3c1)OCCCc1c(C(=O)O)n(C)c3c-2c(Cl)ccc13 [AZD5991] + Cn1cnc2c(F)c(Nc3ccc(Br)cc3Cl)c(C(=O)NOCCO)cc21 [Selumetinib] (first compound max 1 µM, 7x7, partner max 3 µM) | 0.903 | 0.167 | 1 | 1 | 0.143 | 1 | 0.257 | 0.947 | 0.203 | 0.278 | 0.508 | 0.341 | 0.269 | 0.67 | 0.651 | 0.732 | 0.998 | 0.479 | 0.269 | 0.724
